# From ChEMBL document CHEMBL4145634, “Discovery of Janus Kinase 2 (JAK2) and Histone Deacetylase (HDAC) Dual Inhibitors as a Novel Strategy for the Combinational Treatment of Leukemia and Invasive Fungal Infections” (J Med Chem, 2018)
# The source made the active and inactive calls. The calls are words filed in the database; no cut-off is given here.
# Tests used:
# [1] = system: Mus musculus; test: In vivo antifungal activity against FLC resistant Candida albicans 0304103 infected in ICR mouse assessed as mouse survival at 5 mg/kg, ip qd up to 20 days in co-treated with 1 mg/kg, ip qd fluconazol (reference value: 4.5 day); assay type: functional
# [2] = system: Mus musculus; test: Toxicity in BALB/C nude mouse xenografted with human HEL cells assessed as reduction in body weight at 10 mg/kg, ip bid treated for 21 consecutive days; assay type: organism-based; details: in vivo
# [3] = system: K562; test: Antiproliferative activity against human K562 cells after 48 hrs by CCK-8 assay; assay type: functional, cell-based; details: K562, 48 h
# [4] = system: HEL; test: Antitumor activity in human HEL cells xenografted in SCID mouse assessed as mouse survival at 10 mg/kg, ip qd measured after 10 days; assay type: functional, organism-based
# [5] = system: HEL; test: Antitumor activity against human HEL cells xenografted in BALB/C nude mouse assessed as tumor growth at 10 mg/kg, ip bid treated for 21 consecutive days relative to control; assay type: functional
# [6] = system: Mus musculus; test: Toxicity in BALB/C nude mouse xenografted with human HEL cells at 10 mg/kg, ip bid treated for 21 consecutive days; assay type: organism-based; details: in vivo
# [7] = system: Mus musculus; test: Protection against spleen enlargement in SCID mouse xenografted with human HEL cells at 10 mg/kg, ip qd; assay type: functional, organism-based
# [8] = system: HEL; test: Antitumor activity against human HEL cells xenografted in BALB/C nude mouse assessed as tumor growth inhibition at 10 mg/kg, ip bid treated for 21 consecutive days relative to control; assay type: functional; details: read-out: TGI
# [9] = system: HL-60; test: Antiproliferative activity against human HL60 cells after 48 hrs by CCK-8 assay; assay type: functional, cell-based; details: HL-60, 48 h
# [10] = system: K562; test: Antiproliferative activity against human K562 cells after 48 hrs in presence of JAK2 inhibitor CYT-387 by CCK-8 assay; assay type: functional, cell-based; details: K562, 48 h
# [11] = system: Mus musculus; test: In vivo antifungal activity against FLC resistant Candida albicans 0304103 infected in ICR mouse assessed as mouse survival at 5 mg/kg, ip qd up to 20 days (reference value: 4.5 day); assay type: functional, organism-based
# [12] = system: Candida albicans; test: microbe, parasite or virus in culture; assay type: functional; details: Candida albicans, 0710922, 48 h
# Description: Antifungal activity against FLC resistant Candida albicans 0710922 after 48 hrs by checkerboard microdilution method
# [13] = system: HEL; test: Antiproliferative activity against human HEL cells after 48 hrs by CCK-8 assay; assay type: functional, cell-based
# [14] = system: HL-60; test: Antiproliferative activity against human HL60 cells after 48 hrs in presence of JAK2 inhibitor CYT-387 by CCK-8 assay; assay type: functional, cell-based; details: HL-60, 48 h
# [15] = system: HEL; test: Antiproliferative activity against human HEL cells after 48 hrs in presence of JAK2 inhibitor CYT-387 by CCK-8 assay; assay type: functional, cell-based
# [16] = system: HEL; test: Antitumor activity in human HEL cells xenografted in SCID mouse assessed as mouse survival time at 10 mg/kg, ip qd; assay type: functional
# [17] = system: HEL; test: Cell cycle arrest in human HEL cells assessed as accumulation at G1 phase at 1 to 5 uM after 48 hrs propidium iodide staining based flow cytometry; assay type: functional
# [18] = system: Candida albicans; test: Antifungal activity against FLC resistant Candida albicans 100 after 48 hrs by checkerboard microdilution method; assay type: functional; details: Candida albicans, 100, 48 h
# [19] = system: Candida albicans; test: microbe, parasite or virus in culture; assay type: functional; details: Candida albicans, 0304103, 48 h
# Description: Antifungal activity against FLC resistant Candida albicans 0304103 after 48 hrs by checkerboard microdilution method
# [20] = system: Candida albicans; test: microbe, parasite or virus in culture; assay type: functional; details: Candida albicans, 100, 48 h
# Description: Antifungal activity against FLC resistant Candida albicans 100 assessed as fluconazol MIC50 after 48 hrs by checkerboard microdilution method
# [21] = system: Candida albicans; test: microbe, parasite or virus in culture; assay type: functional; details: Candida albicans, 0304103, 48 h; remark: listed apart in the source
# Description: Antifungal activity against FLC resistant Candida albicans 0304103 after 48 hrs in presence of fluconazol by checkerboard microdilution method
# [22] = system: Candida albicans; test: microbe, parasite or virus in culture; assay type: functional; details: Candida albicans, 0710922, 48 h; remark: listed apart in the source
# Description: Antifungal activity against FLC resistant Candida albicans 0710922 after 48 hrs in presence of fluconazol by checkerboard microdilution method
# [23] = system: Candida albicans; test: Synergistic antifungal activity against FLC resistant Candida albicans 100 assessed as FIC index after 48 hrs by checkerboard microdilution method; assay type: functional
# [24] = system: Candida albicans; test: Antifungal activity against FLC resistant Candida albicans 100 after 48 hrs in presence of fluconazol by checkerboard microdilution method; assay type: functional; details: Candida albicans, 100, 48 h
# [25] = system: Candida albicans; test: Synergistic antifungal activity against FLC resistant Candida albicans 0304103 assessed as FIC index after 48 hrs by checkerboard microdilution method; assay type: functional
# [26] = system: HEL; test: Induction of apoptosis in human HEL cells at 10 uM after 48 hrs by Annexin-V-FITC/propidium iodide staining based flow cytometry relative to control; assay type: functional
# [27] = system: Candida albicans; test: microbe, parasite or virus in culture; assay type: functional; details: Candida albicans, 0710922, 48 h; remark: listed apart in the source
# Description: Antifungal activity against FLC resistant Candida albicans 0710922 assessed as fluconazol MIC50 after 48 hrs by checkerboard microdilution method
# [28] = system: Candida albicans; test: Synergistic antifungal activity against FLC resistant Candida albicans 0710922 assessed as FIC index after 48 hrs by checkerboard microdilution method; assay type: functional
# [29] = system: Candida albicans; test: microbe, parasite or virus in culture; assay type: functional; details: Candida albicans, 0304103, 48 h; remark: listed apart in the source
# Description: Antifungal activity against FLC resistant Candida albicans 0304103 assessed as fluconazol MIC50 after 48 hrs by checkerboard microdilution method
# [30] = system: HEL; test: Cell cycle arrest in human HEL cells assessed as accumulation at G1 phase at 1 to 10 uM after 48 hrs propidium iodide staining based flow cytometry; assay type: functional
# [31] = system: Mus musculus; test: In vivo antifungal activity against FLC resistant Candida albicans 0304103 infected in ICR mouse assessed as mouse survival at 1 mg/kg, ip qd up to 20 days (reference value: 4.5 day); assay type: functional
# [32] = system: Candida albicans; test: Antifungal activity against FLC resistant Candida albicans 0304103 at 1 ug/ml up to 24 hrs by checkerboard microdilution method; assay type: functional, organism-based
smiles,measurement,setting,value
O=C(CCCCCCC(=O)Nc1ccccc1)NO [VORINOSTAT],MST,[1],10 days
same,Activity,[2],Non-Toxic
same,IC50,[3],7.7 µM
same,Activity,[4],inactive
same,T/C,[5],87.9%
same,Activity,[6],Non-Toxic
same,Activity,[7],inactive
CN1CCc2c(c3ccccc3n2Cc2ccc(C(=O)NO)cc2)C1 [TUBASTATIN A],inhibition in vivo at 10 mg/kg,[8],18.8%
same,MST,[1],4.5 days
same,IC50,[9],3.75 to 23.9 µM
same,IC50,[3],3.75 to 23.9 µM
same,IC50,[10],2.54 to 8.55 µM
same,Activity,[11],inactive
same,MIC50,[12],> 64 µg/mL
same,Activity,[7],inactive
same,IC50,[13],3.75 to 23.9 µM
same,IC50,[14],2.54 to 8.55 µM
same,IC50,[15],2.54 to 8.55 µM
same,Activity,[16],inactive
same,Activity,[17],Active
same,MIC50,[18],> 64 µg/mL
same,MIC50,[19],> 64 µg/mL
N#CCNC(=O)c1ccc(-c2ccnc(Nc3ccc(N4CCOCC4)cc3)n2)cc1 [MOMELOTINIB],inhibition in vivo at 10 mg/kg,[8],40.2%
same,MIC50,[20],> 64 µg/mL
same,MST,[1],5.5 days
same,IC50,[9],8.3 µM
same,Activity,[2],Non-Toxic
same,IC50,[3],6.5 µM
same,MIC50,[21],> 64 µg/mL
same,MIC50,[22],64 µg/mL
same,fractional inhibitory concentration index (FICI),[23],>2
same,Activity,[4],inactive
same,T/C,[5],68.3%
same,Activity,[6],Non-Toxic
same,MIC50,[12],> 64 µg/mL
same,Activity,[7],inactive
same,MIC50,[24],> 64 µg/mL
same,IC50,[13],2.3 µM
same,fractional inhibitory concentration index (FICI),[25],>2
same,Activity,[26],25.9%
same,MIC50,[27],64 µg/mL
same,fractional inhibitory concentration index (FICI),[28],2
same,MIC50,[18],> 64 µg/mL
same,MIC50,[19],> 64 µg/mL
same,MIC50,[29],> 64 µg/mL
O=C(CCCCCCNC(=O)c1cnc(N(c2ccccc2)c2ccccc2)nc1)NO [RICOLINOSTAT],inhibition in vivo at 10 mg/kg,[8],14.1%
same,MST,[1],5 days
same,IC50,[9],3.75 to 23.9 µM
same,IC50,[3],3.75 to 23.9 µM
same,IC50,[10],2.54 to 8.55 µM
same,Activity,[11],inactive
same,MIC50,[12],> 64 µg/mL
same,Activity,[7],inactive
same,IC50,[13],3.75 to 23.9 µM
same,Activity,[30],Active
same,IC50,[14],2.54 to 8.55 µM
same,IC50,[15],2.54 to 8.55 µM
same,Activity,[16],inactive
same,MIC50,[18],> 64 µg/mL
same,MIC50,[19],> 64 µg/mL
OC(Cn1cncn1)(Cn1cncn1)c1ccc(F)cc1F [FLUCONAZOLE],MST,[31],7.5 days
same,MIC50,[12],> 64 µg/mL
same,Activity,[32],inactive
same,MIC50,[18],> 64 µg/mL
same,MIC50,[19],> 64 µg/mL
